Measured values reported in ChEMBL document CHEMBL4425141, “Design, Synthesis, and Identification of 4″α-Azidoethyl-cyclic ADP-Carbocyclic-ribose as a Highly Potent Analogue of Cyclic ADP-Ribose, a Ca(2+)-Mobilizing Second Messenger” (J Med Chem, 2016).

What was measured:
[1] = (§1) Induction of calcium mobilization in sea urchin egg by fluorometry; assay type: functional, Hemicentrotus pulcherrimus
[2] = test system: Hemicentrotus pulcherrimus; assay: as §1; assay type: functional

Row | EC50 [1] [nM] | Compound | Activity [2]
1 | 24 | [N-]=[N+]=NCC[C@]12COP(=O)(O)OP(=O)([O-])OC[C@H]3O[C@H]([C@H](O)[C@@H]3O)n3cnc4c(N)[n+](cnc43)[C@H](C1)[C@H](O)[C@@H]2O | –
2 | 54 | Nc1c2ncn3c2nc[n+]1[C@@H]1C[C@H](COP(=O)([O-])OP(=O)(O)OC[C@H]2O[C@@H]3[C@H](O)[C@@H]2O)[C@@H](O)[C@H]1O | –
3 | 213 | Nc1c2ncn3c2nc[n+]1[C@@H]1O[C@H](COP(=O)([O-])OP(=O)(O)OC[C@H]2O[C@@H]3[C@H](O)[C@@H]2O)[C@@H](O)[C@H]1O | Dose-dependent effect
